US20200055897A1, “MODIFIED PEPTOIDS” (Technion Research & Development Foundation Limited, priority 2017, published 2020)
Converted amounts (≈) assume the structure as drawn. “And” between values parts separate entries of the source, which are not always exact repeats. Equal values may be shown once. Read-outs that look alike come from different tables or passages of the source. Starred links: 1 amine or outer side, 2 acyl side, 3 side chain; linkers in the order of their positions; H or OH if unused. Non-standard residues stand in square brackets, D forms with d. Residues, ends and D or L forms follow the SMILES beside them. *: point of attachment. N(CH2CH2O-4'-Tpy)Gly = O=C(O)CNCCOc1cc(-c2ccccn2)nc(-c2ccccn2)c1; Acetyl(2-(piperazin-1-yl)) = O=C(CN1CCNCC1)*; X2 = O=C(CN(Cc1ccc2cccc(O)c2n1)[*:1])[*:2]; Gly(Nα-NHCO2Et) = CCOC(=O)NNCC(=O)O; Nrpe = C[C@@H](NCC(=O)O)c1ccccc1; X4 = O=C(CN1CCCN([*:1])CC1)[*:2]; Nspe = C[C@H](NCC(=O)O)c1ccccc1; X1 = O=C(CN1CCN([*:1])CC1)[*:2]; X5 = NC(=O)CN1CCN(*)CC1; X3 = O=C(CN1CCCNCC1)*

Experiments:
[1] = General method for water solubility test (gradual addition of water to 1 mg peptoid until clear); type: physicochemical
Protocol: 1 mg peptoid was placed in an Eppendorf container and water was added gradually (e.g., […] per addition) until a clear solution was obtained. The solubility test was repeated three times and average values are presented. The limit of the test was typically 2.0×10^2 mg/liter (i.e., 1 mg per 5 ml).
Water solubility tests were carried out by a gradual addition of 5 μl distilled water to 1 mg peptoid until a clear solution was obtained. This assay was repeated three times and results were averaged.

[2] = Selectivity towards Cu^2+ by UV-visible absorption spectra (metal ion mixture vs Cu^2+-complex); type: binding; details: water; 1 equivalent peptoid, mixture of Cu^2+, Co^2+, Zn^2+, Fe^2+, Mn^2+ and Ni^2+
Protocol: UV-visible spectrometry measurements were performed using a Cary™ 60 UV-Vis spectrophotometer (Agilent) with Czerny-Turner monochromator. In a typical UV-visible experiment, 10 μl of a peptoid solution (5 mM) was diluted in 3 ml H2O (to obtain a 17 μM concentration) and the UV-visible spectrum was measured. Afterwards 1 equivalent of Cu^2+ (10 μl, 5 mM) or solution containing mixtures of metal ions (1 equivalent Cu^2+, Co^2+, Zn^2+, Mn^2+, Ni^2+ and Fe^3+, 5 mM, 10 μl) was added and the spectrum was measured again.
In order to evaluate the selectivity of P33 and P34 towards Cu^2+, 1 equivalent of each peptoid in water was added to 1 equivalent of a mixture solution containing the metal ions Cu^2+, Co^2+, Zn^2+, Fe^2+, Mn^2+ and Ni^2+, and UV-visible absorption spectra were recorded and compared to UV-visible absorption of Cu^2+-complexes of the peptoids. It has been previously shown that comparing UV-visible absorption spectra is a highly reliable tool to assess the selectivity of the peptoid chelators.

[3] = Fluorescence emission spectra in water (excimer band, aggregation); type: physicochemical; details: 40 μM
Protocol: (§1) In order to assess whether the dissolved peptoids form aggregates, fluorescence spectra were determined for P18 and P21 (which comprise Ns1npe) dissolved in water. Aggregation of peptoids with Ns1npe groups has been reported to be associated with an excimer band at 392 nm [Fuller et al., Org. Lett. 2013, 15:5118-5121]. In addition, CD spectra of P21 were determined at various concentrations ranging from 40 to 180 μM in water.

[4] = Circular dichroism (CD) spectra of peptoids in water (temperature and concentration dependence); type: physicochemical; details: for Aggregation in water from concentration dependence of CD spectra: 40 to 180 μM
Protocol: Circular dichroism (CD) measurements were performed using a J-810-150S circular dichroism spectropolarimeter (Jasco). Spectra were obtained in a 1 mm path-length fused quartz cell. Prior to taking measurements, 5 mM stock oligomer solution was constituted in 100% water. The appropriate dilutions were made immediately before the measurements. Eight scans were taken for each sample at a scan rate of 1 nm/second at 1 nm increments. Data are expressed in terms of per-residue molar ellipticity (degrees*cm^2/dmol) calculated per mole of amide groups present.
as §1
Similarly, CD spectra of P2, P5 and P8 (which comprise Nspe rather than Ns1npe as in P18 and P21) were determined in order to assess whether the dissolved peptoids form aggregates in water.

[5] = literature report (Baskin & Maayan 2016); cited from earlier work

Row | Structure (SMILES) | solubility [1] | Aggregation in water from concentration dependence of CD spectra [4] | further results
1 | C[C@H](NCC(=O)N(CC(=O)N(CC(=O)N(CC(=O)N(CCOc1cc(-c2ccccn2)nc(-c2ccccn2)c1)CC(=O)N(CC(=O)N1CCN(CC(N)=O)CC1)[C@@H](C)c1ccccc1)[C@@H](C)c1ccccc1)[C@@H](C)c1ccccc1)Cc1ccc2cccc(O)c2n1)c1ccccc1 [Peptoid P34, Npz-Nspe-Ntrp-(Nspe)2-Nhq-Nspe] (H-[Nspe][X2][Nspe][Nspe][N(CH2CH2O-4'-Tpy)Gly][Nspe]-X5; N-terminus assumed) | 8.3 mg/mL (≈ 6.22 mM) |  | Selective binding to Cu^2+ [2]: selectively binds to Cu^2+
2 | C[C@@H](c1cccc2ccccc12)N(CC(N)=O)C(=O)CN(C(=O)CN(C(=O)CN(C(=O)CN1CCN(C(=O)CN2CCNCC2)CC1)[C@@H](C)c1cccc2ccccc12)[C@@H](C)c1cccc2ccccc12)[C@@H](C)c1cccc2ccccc12 [Peptoid P18, (Ns1npe)4-(Npz)2] | 13.3 mg/mL (≈ 11.9 mM) |  | Excimer band near 392 nm (aggregation) [3]: no excimer band was observed
3 | C[C@@H](c1ccccc1)N(CC(N)=O)C(=O)CN(C(=O)CN(C(=O)CN(C(=O)CN(C(=O)CN(C(=O)CN1CCNCC1)[C@@H](C)c1ccccc1)[C@@H](C)c1ccccc1)[C@@H](C)c1ccccc1)[C@@H](C)c1ccccc1)[C@@H](C)c1ccccc1 [Peptoid P2, (Nspe)6-Npz] ({Acetyl(2-(piperazin-1-yl))}-[Nspe][Nspe][Nspe][Nspe][Nspe][Nspe]-NH2) | ~900 µM and 1000 µg/mL | no aggregation | solubility ([1]; pH 4.5): 1.66 mg/mL (≈ 1.49 mM); solubility ([1]; pH 7.5): 1.28 mg/mL (≈ 1.15 mM); solubility ([1]; pH 10.5): < 0.2 mg/mL; Change of CD spectrum (helical structure) in water with temperature ([4]; 0° C. to 90° C.): does not change significantly
4 | C[C@H](NCC(=O)N(CC(=O)N(CC(=O)N(CC(=O)N(CCOc1cc(-c2ccccn2)nc(-c2ccccn2)c1)CC(=O)N(CC(N)=O)[C@@H](C)c1ccccc1)[C@@H](C)c1ccccc1)[C@@H](C)c1ccccc1)Cc1ccc2cccc(O)c2n1)c1ccccc1 [Peptoid P32, reference compound] (H-[Nspe][X2][Nspe][Nspe][N(CH2CH2O-4'-Tpy)Gly][Nspe]-NH2; N-terminus assumed) | < 0.2 mg/mL |  | Selective chelation of Cu^2+ (reported) [5]: selective peptoid chelator for Cu^2+
5 | C[C@@H](c1ccccc1)N(CC(N)=O)C(=O)CN(CCOc1cc(-c2ccccn2)nc(-c2ccccn2)c1)C(=O)CN(C(=O)CN(C(=O)CN(Cc1ccc2cccc(O)c2n1)C(=O)CN(C(=O)CN1CCNCC1)[C@@H](C)c1ccccc1)[C@@H](C)c1ccccc1)[C@@H](C)c1ccccc1 [Peptoid P33, Nspe-Ntrp-(Nspe)2-Nhq-Nspe-Npz] ({Acetyl(2-(piperazin-1-yl))}-[Nspe][X2][Nspe][Nspe][N(CH2CH2O-4'-Tpy)Gly][Nspe]-NH2; N-terminus assumed) | 244 mg/mL (≈ 183 mM) |  | Selective binding to Cu^2+ [2]: does not selectively bind to Cu^2+
6 | C[C@@H](c1cccc2ccccc12)N(CC(N)=O)C(=O)CN(C(=O)CN(C(=O)CN(C(=O)CN1CCN(C(=O)CN2CCN(C(=O)CN3CCNCC3)CC2)CC1)[C@@H](C)c1cccc2ccccc12)[C@@H](C)c1cccc2ccccc12)[C@@H](C)c1cccc2ccccc12 [Peptoid P21, (Ns1npe)4-(Npz)3] | 176 mg/mL (≈ 142 mM) | some concentration-dependent aggregation | Excimer band near 392 nm (aggregation) [3]: no excimer band was observed

More lines, main results first:

Row | solubility [1] | Aggregation in water from concentration dependence of CD spectra [4] | Structure (SMILES) | further results
7 | 58 mg/mL (≈ 46.9 mM) | no aggregation | C[C@@H](c1ccccc1)N(CC(N)=O)C(=O)CN(C(=O)CN(C(=O)CN(C(=O)CN(C(=O)CN(C(=O)CN1CCN(C(=O)CN2CCNCC2)CC1)[C@@H](C)c1ccccc1)[C@@H](C)c1ccccc1)[C@@H](C)c1ccccc1)[C@@H](C)c1ccccc1)[C@@H](C)c1ccccc1 [Peptoid P5, (Nspe)6-(Npz)2] ({Acetyl(2-(piperazin-1-yl))}-[X1][Nspe][Nspe][Nspe][Nspe][Nspe][Nspe]-NH2) | Water solubility relative to that of P2 [1]: over 50 times; Water solubility relative to that of P2 at pH 10.5 ([1]; pH 10.5): 30 times
8 | 510 mg/mL (≈ 403 mM) | no aggregation | C[C@@H](c1ccccc1)N(CC(N)=O)C(=O)CN(C(=O)CN(C(=O)CN(C(=O)CN(C(=O)CN(C(=O)CN1CCCN(C(=O)CN2CCCNCC2)CC1)[C@@H](C)c1ccccc1)[C@@H](C)c1ccccc1)[C@@H](C)c1ccccc1)[C@@H](C)c1ccccc1)[C@@H](C)c1ccccc1 [Peptoid P8, (Nspe)6-(Nhpz)2] (X3-[X4][Nspe][Nspe][Nspe][Nspe][Nspe][Nspe]-NH2) | 
9 | 177 mg/mL (≈ 149 mM) |  | CCOC(=O)NN(CC(=O)N(CC(N)=O)[C@H](C)c1ccccc1)C(=O)CN(C(=O)CN(NC(=O)OCC)C(=O)CN(C(=O)CN(NC(=O)OCC)C(=O)CN1CCN(C(=O)CN2CCNCC2)CC1)[C@H](C)c1ccccc1)[C@H](C)c1ccccc1 [Peptoid P30] ({Acetyl(2-(piperazin-1-yl))}-[X1][Gly(Nα-NHCO2Et)][Nrpe][Gly(Nα-NHCO2Et)][Nrpe][Gly(Nα-NHCO2Et)][Nrpe]-NH2) | 
